In patent US20180289009A1 (Synexis LLC, priority 2015, published 2018):
Several values for one entry are separate records, joined by “and”; a condition that tells them apart may be missing. Equal values may be shown once. Read-outs that look alike come from different tables or passages of the source.

Columns and labels:
[1] = test system: mold spoilage on fresh strawberries; details: DHP gas 0.1-0.4 ppm; 5 days; 73-78° F.; humidity 40-65%
Experimental: Experiments are conducted in a 1584 cubic foot test room. The temperature of test room is maintained between 73° F. and 78° F., and the humidity of the ambient air is between 40% and 65%. […] After the 5-day incubation period, the strawberries are evaluated for the presence of mold spoilage.

H1N1 virus = details: DHP gas 0.6 ppm, 1.12 × 10^6 per inch^2
MS2 bacteriophage = details: DHP gas 0.6 ppm; 1.25 × 10^3 per inch^2
Feline calicivirus = details: DHP gas 0.6 ppm; ~1 × 10^8 per inch^2
Streptococcus pyogenes = details: DHP gas 0.6 ppm; 5 × 10^4 per inch^2
C. difficile (spores) = details: DHP gas 0.5-1.0 ppm, 3.78 × 10^6 per inch^2
[2] = test system: Aspergillus Niger (vegetative); details: vegetative form; DHP gas 0.3 ppm; 2.2 × 10^4 per inch^2
Enterococcus faecalis = details: DHP gas 0.5-1.0 ppm
[3] = test system: Geobacillus stearothermophilus spores
[4] = Log2 spore strip, 72 hours exposure to DHP gas at about 0.3 ppm
[5] = Log 2 spore strip, 144 hours exposure to DHP gas at about 0.3 ppm
[6] = Log 2 spore strip, 216 hours exposure to DHP gas at about 0.3 ppm
[7] = Log2 spore strip, 288 hours exposure to DHP gas at about 0.3 ppm
[8] = Log3 spore strip, 40 hours exposure to DHP gas at about 0.3 ppm
[9] = Log3 spore strip, 47.75 hours exposure to DHP gas at about 0.3 ppm
[10] = Log3 spore strip, 60.2 hours exposure to DHP gas at about 0.3 ppm
[11] = Log3 spore strip, 67.5 hours exposure to DHP gas at about 0.3 ppm
[12] = Log3 spore strip, 100 hours exposure to DHP gas at about 0.3 ppm
[13] = Log 3 spore strip, 144 hours exposure to DHP gas at about 0.3 ppm
[14] = Log 3 spore strip, 216 hours exposure to DHP gas at about 0.3 ppm
[15] = Log4 spore strip, 121.4 hours exposure to DHP gas at about 0.3 ppm
[16] = Log4 spore strip, 192 hours exposure to DHP gas at about 0.3 ppm
[17] = Log 4 spore strip, 216 hours exposure to DHP gas at about 0.3 ppm
[18] = Log4 spore strip, 223.5 hours exposure to DHP gas at about 0.3 ppm
[19] = Log4 spore strip, 288 hours exposure to DHP gas at about 0.3 ppm

SMILES: OO [DHP gas, hydrogen peroxide]
- Mold spoilage after 5-day incubation [1]: no signs of mold spoilage
- Time to 90% reduction (H1N1 virus): less than 30 minutes
- Time to 90% reduction (H1N1 virus; listed as DHP Gas): 22.9 min
- Time to 90% reduction (MS2 bacteriophage): <4 h
- Time to 90% reduction (Feline calicivirus): <2 h
- Time to 90% reduction (Streptococcus pyogenes): <4 h
- Time to 90% reduction (MRSA; soil load not stated): under 5 hours
- Time to 90% reduction (MRSA; with soil load, DHP gas 0.6 ppm, 0.5 × 10^5 per inch^2): 4.6 h
- Time to 90% reduction (MRSA; without soil load, DHP gas 0.6 ppm, 1 × 10^5 per inch^2): 2.6 h
- Reduction at 24 hours (C. difficile (spores)): 70.4% at 24
- Time to 90% reduction [2]: 7 h
- Time to 90% reduction (Enterococcus faecalis): <2 h
- Biological Change [3, 4]: turbidity
- Color Change within 24 hour incubation [3, 4]: light yellow
- Time of Change [3, 4]: 15 h
- Color Change within 24 hour incubation [3, 5]: very dark orange
- Time of Change [3, 5]: 22 h
- Color Change within 24 hour incubation ([3]; Log 2 spore strip, 166.5 hours exposure to DHP gas at about 0.3 ppm): may have changed
- Biological Change [3, 6]: no turbidity
- Color Change within 24 hour incubation [3, 6]: very dark orange
- Time of Change [3, 6]: 22 h
- Biological Change [3, 7]: no turbidity
- Color Change within 24 hour incubation [3, 7]: very light orange
- Time of Change [3, 7]: 17 h
- Biological Change [3, 8]: Heavy turbidity
- Color Change within 24 hour incubation [3, 8]: + Light orange
- Color Change within 24 hour incubation ([3]; Log3 spore strip, 42 hours exposure to DHP gas at about 0.3 ppm): +
- Color Change within 24 hour incubation ([3]; Log3 spore strip, 45.5 hours exposure to DHP gas at about 0.3 ppm): +
- Biological Change [3, 9]: Less turbidity
- Color Change within 24 hour incubation [3, 9]: + Dark orange
- Biological Change [3, 10]: Heavy turbidity
- Color Change within 24 hour incubation [3, 10]: +
- Color Change within 24 hour incubation ([3]; Log3 spore strip, 64.2 hours exposure to DHP gas at about 0.3 ppm): +
- Color Change within 24 hour incubation ([3]; Log3 spore strip, 64.5 hours exposure to DHP gas at about 0.3 ppm): +
- Biological Change [3, 11]: Almost no turbidity
- Color Change within 24 hour incubation [3, 11]: +
- Color Change within 24 hour incubation ([3]; Log3 spore strip, 70 hours exposure to DHP gas at about 0.3 ppm): +
- Color Change within 24 hour incubation ([3]; Log3 spore strip, 85.1 hours exposure to DHP gas at about 0.3 ppm): +
- Color Change within 24 hour incubation ([3]; Log3 spore strip, 89 hours exposure to DHP gas at about 0.3 ppm): +
- Color Change within 24 hour incubation [3, 12]: +
- Time of Change [3, 12]: 16 h and 22 to 24 h
- Biological Change [3, 13]: no turbidity
- Color Change within 24 hour incubation [3, 13]: very light orange
- Time of Change [3, 13]: 16.5 h
- Color Change within 24 hour incubation ([3]; Log 3 spore strip, 166.5 hours exposure to DHP gas at about 0.3 ppm): −
- Biological Change [3, 14]: no turbidity
- Color Change within 24 hour incubation [3, 14]: very dark orange
- Time of Change [3, 14]: 22 h
- Biological Change [3, 15]: almost no turbidity
- Color Change within 24 hour incubation [3, 15]: −
- Time of Change [3, 15]: 8 to 15 h and 15 h
- Time of Change ([3]; Log4 spore strip, 144 hours exposure to DHP gas at about 0.3 ppm): 17 h and 16.5 h
- Color Change within 24 hour incubation ([3]; Log 4 spore strip, 166.5 hours exposure to DHP gas at about 0.3 ppm): −
- Color Change within 24 hour incubation ([3]; Log4 spore strip, 168 hours exposure to DHP gas at about 0.3 ppm): −
- Color Change within 24 hour incubation [3, 16]: −
- Time of Change [3, 16]: 15 h
- Biological Change [3, 17]: no turbidity
- Color Change within 24 hour incubation [3, 17]: very dark orange
- Time of Change [3, 17]: 22 h
- Biological Change [3, 18]: no turbidity
- Time of Change [3, 18]: 14 h and 22 h
- Biological Change [3, 19]: no turbidity
- Color Change within 24 hour incubation [3, 19]: darker orange
- Time of Change [3, 19]: 17 h
